# Tested on: human genome (hg18)
# Assay: ChIP-Seq of DUX4 binding sites in transduced primary myoblasts
# Details: for max.cov (peak height): non-repeat binding site
# Experimental: Non-redundant reads unambiguously mapped to the human genome were computationally extended to a total length of 200 nucleotides and “peaks” were defined as regions where the number of reads was higher than a statistical threshold compared to the background, as described below. Reads mapping to the X and Y chromosomes were excluded from the analysis.
# ChIP was performed and ChIP DNA samples were prepared as previously described in Cao et al., Dev. Cell 18:662-674 (2010), hereby incorporated herein by reference. […] Anti-DUX4 N-terminus polyclonal antibodies FH106 and FH107 were combined to immunoprecipitate DUX4-s. The samples were sequenced with Illumina Genome Analyzer II.
# Sequences were extracted by Illumina package GApipeline and reads were aligned using BWA to the human genome (hg18). The inventors only kept one of the duplicated sequences to minimize the artifacts of PCR amplification. Each read was extended in the sequencing orientation to a total of 200 bases to infer the coverage at each genomic position. Peak calling was performed by a house developed R package “peakSig” (pending submission to Bioconductor), which model background reads by a negative binomial distribution. The negative binomial distribution can be viewed as a continuous mixture of Poisson distribution where the mixing distribution of the Poisson rate is modeled as a Gamma prior. This prior distribution is used to capture the variation of background reads density across the genome. Model parameters were estimated by fitting the truncated distribution on the number of bases with low coverage (one to three), to avoid the problem of inferring effective genome size excluding the non-mappable regions, and to eliminate contamination of any foreground signals in the high coverage regions. The inventors also fit a GC dependent mixture model so that the significance of the peaks is determined not only by peak height, but also by the GC content of the neighboring genomic regions.
# Discriminative motif discovery was carried out as described in Palii et al. (2011), in which motifs were identified that distinguish a positive and a negative sequence dataset, which in this study, the positive sequences correspond to Dux4 binding sites and negative sequences correspond to the randomly sampled flanking regions of Dux4 binding sites. To generate more accurate presentation of the Dux4 binding sites from the consensus pattern returned by this analysis, the inventors tried to learn a positional weight matrix (PWM) model, using the matches of the consensus pattern as the seed to initialize the iterative expectation-maximization (EM) refinement process similar to MEME. If appropriate, the motifs are extended iteratively as long as there is sequence preference in the flanking region, and refined in the same EM process.
# The inventors associated a peak to its closest TSS within the region flanked by CTCF binding sites, which were identified in a ChIP-seq experiment on human CD4+ T cells (GEO accession number GSE12889/GSM325895).
# [1] = repeat family DNA/TcMar-Mariner
# [2] = repeat family DNA/hAT-Blackjack
substance,measurement,setting,value
"DUX4-fl: full-length DUX4 protein (SEQ ID NO:110), expressed from lentiviral or pCS2 vectors or in vitro translated",max.cov (peak height),"SNAI1, chr20, dist2tss 769",62
same,max.cov (peak height),"SON, chr21, dist2tss −2951",244
same,max.cov (peak height),"SPRYD5, chr11, dist2tss −2855",133
same,max.cov (peak height),"SPTY2D1, chr11, dist2tss 5934",74
same,max.cov (peak height),"SPTY2D1, chr11, dist2tss −797",105
same,max.cov (peak height),"SRRT, chr7, dist2tss 1546",128
same,max.cov (peak height),"SYNJ1, chr21, dist2tss −766",229
same,max.cov (peak height),"TAF4B, chr18, dist2tss −1741",65
same,max.cov (peak height),"TFIP11, chr22, dist2tss −1353",234
same,max.cov (peak height),"TRIM43, chr2, dist2tss 1385",47
same,max.cov (peak height),"TRIM43, chr2, dist2tss −5584",85
same,max.cov (peak height),"TRIM48, chr11, dist2tss −151",178
same,max.cov (peak height),"TRIM49L1, chr11, dist2tss 200",85
same,max.cov (peak height),"TRIM49L2, chr11, dist2tss −202",109
same,max.cov (peak height),"USP29, chr19, dist2tss 2090",104
same,max.cov (peak height),"USP29, chr19, dist2tss 3676",66
same,max.cov (peak height),"ZNF217, chr20, dist2tss 3546",122
same,max.cov (peak height),"ZNF217, chr20, dist2tss −2168",55
same,max.cov (peak height),"ZNF296, chr19, dist2tss 182",110
same,max.cov (peak height),"ZNF705A, chr12, dist2tss −5106",224
same,max.cov (peak height),"ZSCAN4, chr19, dist2tss 1430",364
same,max.cov (peak height),"ZSCAN5B, chr19, dist2tss 4892",89
same,max.cov (peak height),"ZSCAN5B, chr19, dist2tss −4101",67
same,max.cov (peak height),"ZSCAN5B, chr19, dist2tss −5014",98
same,max.cov (peak height),"hCG_1651160, chr7, dist2tss −192",215
same,max.cov (peak height),"hCG_1651160, chr7, dist2tss −892",114
same,DUX4-fl Binding Prevalence (fraction of all DUX4-fl peaks),[1],0.00105
same,DUX4-fl Enrichment (binding prevalence/overall genome prevalence),[1],1.14
same,DUX4-fl Binding Prevalence (fraction of all DUX4-fl peaks),repeat family DNA/TcMar-Tigger,0.0124
same,DUX4-fl Enrichment (binding prevalence/overall genome prevalence),repeat family DNA/TcMar-Tigger,1.11
same,DUX4-fl Binding Prevalence (fraction of all DUX4-fl peaks),[2],0.00064
same,DUX4-fl Enrichment (binding prevalence/overall genome prevalence),[2],0.57
same,DUX4-fl Binding Prevalence (fraction of all DUX4-fl peaks),repeat family DNA/hAT-Charlie,0.00761
same,DUX4-fl Enrichment (binding prevalence/overall genome prevalence),repeat family DNA/hAT-Charlie,0.51
same,DUX4-fl Binding Prevalence (fraction of all DUX4-fl peaks),repeat family DNA/hAT-Tip100,0.00098
same,DUX4-fl Enrichment (binding prevalence/overall genome prevalence),repeat family DNA/hAT-Tip100,0.45
same,DUX4-fl Binding Prevalence (fraction of all DUX4-fl peaks),repeat family DNA/hAT?,0.00016
same,DUX4-fl Enrichment (binding prevalence/overall genome prevalence),repeat family DNA/hAT?,0.94
same,DUX4-fl Binding Prevalence (fraction of all DUX4-fl peaks),repeat family LINE/CR1,0.00356
same,DUX4-fl Enrichment (binding prevalence/overall genome prevalence),repeat family LINE/CR1,1.00
same,DUX4-fl Binding Prevalence (fraction of all DUX4-fl peaks),repeat family LINE/L1,0.0938
same,DUX4-fl Enrichment (binding prevalence/overall genome prevalence),repeat family LINE/L1,0.58
same,DUX4-fl Binding Prevalence (fraction of all DUX4-fl peaks),repeat family LINE/L2,0.02978
same,DUX4-fl Enrichment (binding prevalence/overall genome prevalence),repeat family LINE/L2,0.86
same,DUX4-fl Binding Prevalence (fraction of all DUX4-fl peaks),repeat family LTR/ERV,0.00032
same,DUX4-fl Enrichment (binding prevalence/overall genome prevalence),repeat family LTR/ERV,5.33
same,DUX4-fl Binding Prevalence (fraction of all DUX4-fl peaks),repeat family LTR/ERV1,0.01878
same,DUX4-fl Enrichment (binding prevalence/overall genome prevalence),repeat family LTR/ERV1,0.72
same,DUX4-fl Binding Prevalence (fraction of all DUX4-fl peaks),repeat family LTR/ERVK,0.00803
same,DUX4-fl Enrichment (binding prevalence/overall genome prevalence),repeat family LTR/ERVK,2.97
same,DUX4-fl Binding Prevalence (fraction of all DUX4-fl peaks),repeat family LTR/ERVL,0.04558
same,DUX4-fl Enrichment (binding prevalence/overall genome prevalence),repeat family LTR/ERVL,2.50
same,DUX4-fl Binding Prevalence (fraction of all DUX4-fl peaks),repeat family LTR/ERVL-MaLR,0.3572
same,DUX4-fl Enrichment (binding prevalence/overall genome prevalence),repeat family LTR/ERVL-MaLR,9.92
same,DUX4-fl Binding Prevalence (fraction of all DUX4-fl peaks),repeat family LTR/Gypsy,0.00081
same,DUX4-fl Enrichment (binding prevalence/overall genome prevalence),repeat family LTR/Gypsy,1.07
same,DUX4-fl Binding Prevalence (fraction of all DUX4-fl peaks),repeat family SINE/Alu,0.00777
same,DUX4-fl Enrichment (binding prevalence/overall genome prevalence),repeat family SINE/Alu,0.08
same,DUX4-fl Binding Prevalence (fraction of all DUX4-fl peaks),repeat family SINE/MIR,0.02317
same,DUX4-fl Enrichment (binding prevalence/overall genome prevalence),repeat family SINE/MIR,0.82
same,DUX4-fl Binding Prevalence (fraction of all DUX4-fl peaks),repeat family SINE/tRNA,0.00011
same,DUX4-fl Enrichment (binding prevalence/overall genome prevalence),repeat family SINE/tRNA,1.57
same,DUX4-fl Binding Prevalence (fraction of all DUX4-fl peaks),repeat family Satellite,0.00068
same,DUX4-fl Enrichment (binding prevalence/overall genome prevalence),repeat family Satellite,0.66
same,DUX4-fl Binding Prevalence (fraction of all DUX4-fl peaks),repeat family Satellite/centr,0.00047
same,DUX4-fl Enrichment (binding prevalence/overall genome prevalence),repeat family Satellite/centr,0.19
same,DUX4-fl Binding Prevalence (fraction of all DUX4-fl peaks),repeat family Simple_repeat,0.00442
same,DUX4-fl Enrichment (binding prevalence/overall genome prevalence),repeat family Simple_repeat,0.53
same,DUX4-fl Binding Prevalence (fraction of all DUX4-fl peaks),repeat family Unknown,0.00063
same,DUX4-fl Enrichment (binding prevalence/overall genome prevalence),repeat family Unknown,1.47
same,DUX4-fl Binding Prevalence (fraction of all DUX4-fl peaks),repeat family rRNA,1.00E−04
same,DUX4-fl Enrichment (binding prevalence/overall genome prevalence),repeat family rRNA,1.67

# Source: patent publication US20140242093A1, “METHODS AND COMPOSITIONS FOR MODULATING THE INNATE IMMUNE RESPONSE AND/OR MYOGENESIS IN A MAMMALIAN SUBJECT” (FRED HUTCHINSON CANCER RESEARCH CENTER, priority 2011, published 2014)
